Data reported in patent US6737085B2, “Apocynum venetum extract for use as antidepressant” (Tokiwa Phytochemical Co., Ltd., priority 2000, dated 2004).
Counter-ions that a name gives are not always drawn.

Assays:
Male CD rats [1] = test: forced swimming test, repeated administration; assay type: in vivo
Protocol: A common method for evaluating antidepressant effect called as the forced swimming test (Porsolt et al., Nature. 266, 730-732, (1977)) was used in the same manner as in Example 3. Male CD rats (230-250 g) were used in the tests. Forty animals were divided into groups of 8 animals treated with 20 mg/kg imipramine, 30 mg/kg, 60 mg/kg and 125 mg/kg Apocynum extract and purified water. Test solutions were orally administered between 3-4 p.m. daily. Rats were forced to swim for 15 min in a Plexiglas cylinder (40×18 cm i.d.) containing water at 25° C. at a level of 17 cm so that they preliminarily learned that they could not escape from the cylinder. […] All the tests were performed between 1-3 p.m. The images in the tapes were evaluated by a person who was not aware of the treatment of each group.
(§1) Test solutions were prepared by dissolving or suspending Apocynum extract prepared in Example 2 in purified water or dissolving imipramine-HCl (imipramine is a known tricyclic antidepressant) in purified water, and administered at a dose of 10 ml/kg body weight. The results from 8 experimental animals in each group were expressed in mean±SEM. Statistic significance as compared with control group was determined by ANOVA and multiple comparison tests were made by Fisher-PLSD (p<0.05:*).

Male CD rats [2] = test: forced swimming test, acute administration; assay type: in vivo
Protocol: A common method for evaluating antidepressant effect called as the forced swimming test (Porsolt et al., Nature. 266, 730-732, (1977)) was used as follows. Male CD rats (230-250 g) were used in the tests. Forty animals were divided into groups of 8 animals treated with 30 mg/kg imipramine, 125 mg/kg, 250 mg/kg and 500 mg/kg Apocynum extract and purified water. Test solutions were orally administered 24 h, 5 h and 1 h before testing. Rats were forced to swim for 15 min in a Plexiglas cylinder (40×18 cm i.d.) containing water at 25° C. at a level of 17 cm so that they preliminarily learned that they could not escape from the cylinder. […] All the tests were performed between 1-3 p.m. The images in the tapes were evaluated by a person who was not aware of the treatment of each group.
as §1, with “mean ”SEM.” for “mean±SEM.”

In the case of CN(C)CCCN1c2ccccc2CCc2ccccc21 [Imipramine, imipramine-HCl], the “Inactive period (seconds)” value (Male CD rats [1]; 20 mg/kg orally daily, repeated, 5 min swim 1 h after final administration, mean±SEM, n=8, control 161.54 ± 16.5, * p<0.05) was 97.91 ± 9.6* seconds, the “inactive period as compared with control group” value (Male CD rats [1]; 20 mg/kg, repeated oral administration, ANOVA, Fisher-PLSD p<0.05) was “significantly shortened” and the “Inactive period (seconds)” value (Male CD rats [2]; 30 mg/kg orally 24 h, 5 h and 1 h before testing, 5 min swim, mean±SEM, n=8, control 209 ± 20, * p<0.05) was 137 ± 18* seconds. For the same compound, the “inactive period as compared with control group” value (Male CD rats [2]; 30 mg/kg, acute oral administration, ANOVA, Fisher-PLSD p<0.05) was “significantly shortened”.
